Columns and labels:
Test in all cases: Bliss excess, mean over the matrix (fraction); higher = more synergy
A2058 (Melanoma) = tested on: A2058 (Melanoma)
In short: (§1)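 Bliss excess equals the observed combination effect minus the expected value EA + EB − EA·EB, where EA and EB are the effects of each agent alone. Combination Emax is the second-highest inhibition within the matrix. Inhibition was scaled from CellTiter-Glo 2.0 luminescence, with 0 set by vehicle wells and 1 by blank wells, after 72 hours of two-drug dosing of cells plated in 1536-well plates.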

[1] = tested on: CAL-62 (Thyroid Gland Carcinoma)
In short: as §1

[2] = tested on: FADU (Head and Neck Carcinoma)
In short: as §1

[3] = tested on: HCT-15 (Colorectal Carcinoma)
In short: as §1

[4] = tested on: KE-37 (T-Lymphoblastic Leukemia)
In short: as §1

[5] = tested on: L-1236 (Hodgkin's Lymphoma)
In short: as §1

[6] = tested on: LK-2 (Squamous Cell Lung Carcinoma)
In short: as §1

[7] = tested on: LXF-289 (Lung Adenocarcinoma)
In short: as §1

[8] = tested on: NCI-H446 (Small Cell Lung Carcinoma)
In short: as §1

[9] = tested on: OPM-2 (Plasma Cell Myeloma)
In short: as §1

[10] = tested on: OVMIU (Ovarian Carcinoma)
In short: as §1

[11] = tested on: PC-3_[JPC-3] (Lung Adenocarcinoma)
In short: as §1

[12] = tested on: PSN1 (Pancreatic Carcinoma)
In short: as §1

[13] = tested on: REH (B-Lymphoblastic Leukemia)
In short: as §1

SF268 (Low Grade Glioma) = tested on: SF268 (Low Grade Glioma)
In short: as §1

[14] = tested on: SHP-77 (Small Cell Lung Carcinoma)
In short: as §1

[15] = tested on: SK-PN-DW (Other Solid Carcinomas)
In short: as §1

[16] = tested on: TE-8 (Esophageal Squamous Cell Carcinoma)
In short: as §1

WM278 (Melanoma) = tested on: WM278 (Melanoma)
In short: as §1

WM793B (Melanoma) = tested on: WM793B (Melanoma)
In short: as §1

Compound | Bliss excess (A2058 (Melanoma)) | Bliss excess [1] | Bliss excess [2] | Bliss excess [3] | Bliss excess [4] | Bliss excess [5] | Bliss excess [6] | Bliss excess [7] | Bliss excess [8] | Bliss excess [9] | Bliss excess [10] | Bliss excess [11] | Bliss excess [12] | Bliss excess [13] | Bliss excess (SF268 (Low Grade Glioma)) | Bliss excess [14] | Bliss excess [15] | Bliss excess [16] | Bliss excess (WM278 (Melanoma)) | Bliss excess (WM793B (Melanoma))
COc1cccc(OCCCN)c1-c1cc(Nc2cnc(C#N)cn2)n[nH]1 [Prexasertib] + CCc1c2c(nc3ccc(O)cc13)-c1cc3c(c(=O)n1C2)COC(=O)[C@]3(O)CC [SN-38] (first compound max 1 µM, 7x7, partner max 0.3 µM) | 0.123 | -0.0543 | -0.0233 | 0.051 | -0.0182 | -0.0584 | 0.0915 | -0.0201 | 0.0756 | -0.0125 | -0.0921 | -0.0729 | 0.0569 | -0.0054 | 0.0097 | 0.121 | -0.0672 | 0.0456 | -0.0479 | -0.0489
COc1cccc(OCCCN)c1-c1cc(Nc2cnc(C#N)cn2)n[nH]1 [Prexasertib] + CN(C)CCCOc1ccc(-c2ccc3ncc4c(c3c2)n(C2CCOCC2)c(=O)n4C)cn1 [AZD0156] (first compound max 1 µM, 7x7, partner max 1 µM) | 0.007 | -0.0364 | -0.0256 | 0.0607 | -0.0022 | -0.0649 | -0.0181 | 0.0113 | -0.0009 | 0.0204 | -0.0012 | -0.0526 | -0.0038 | 0.0171 | 0.0592 | 0.0107 | -0.0141 | -0.0033 | 0.0128 | -0.0265
COc1cccc(OCCCN)c1-c1cc(Nc2cnc(C#N)cn2)n[nH]1 [Prexasertib] + C[C@@H]1COCCN1C2=NC(=NC(=C2)C3(CC3)[S@](=N)(=O)C)C4=C5C=CNC5=NC=C4 [AZD6738] (first compound max 1 µM, 7x7, partner max 10 µM) | 0.0232 | -0.005 | -0.0333 | 0.0391 | 0.0043 | -0.0199 | -0.0182 | -0.0228 | 0.0078 | -0.0663 | 0.0388 | 0.0576 | 0.0334 | 0.0032 | -0.0421 | 0.0645 | -0.0438 | -0.0122 | -0.0364 | -0.05
COc1cccc(OCCCN)c1-c1cc(Nc2cnc(C#N)cn2)n[nH]1 [Prexasertib] + Cc1cc2ncnn2cc1Nc1ncc2c(n1)n(C1CCOCC1)c(=O)n2C [AZD7648] (first compound max 1 µM, 7x7, partner max 10 µM) | 0.0025 | -0.0128 | -0.0383 | -0.0449 | -0.006 | -0.046 | -0.037 | -0.0006 | -0.008 | -0.0341 | -0.0211 | -0.0103 | 0.0106 | -0.0041 | 0.0078 | -0.0143 | -0.0503 | -0.0448 | -0.009 | -0.0169
COc1cccc(OCCCN)c1-c1cc(Nc2cnc(C#N)cn2)n[nH]1 [Prexasertib] + O=C(c1cc(Cc2n[nH]c(=O)c3ccccc23)ccc1F)N1CCN(C(=O)C2CC2)CC1 [Olaparib] (first compound max 1 µM, 7x7, partner max 10 µM) | 0.0158 | -0.0031 | 0.0354 | -0.0077 | 0.0073 | -0.0391 | -0.0249 | -0.0569 | 0.003 | -0.0628 | -0.0938 | -0.0525 | -0.0146 | -0.0271 | 0.0208 | -0.0791 | -0.0689 | -0.075 | -0.0732 | -0.0688
COc1cc2c(cc1OCCCCCOc1cc3c(cc1OC)C(=O)N1C=C(C)C[C@H]1C=N3)N=C[C@@H]1CC(C)=CN1C2=O [SG3199] + O=C(c1cc(Cc2n[nH]c(=O)c3ccccc23)ccc1F)N1CCN(C(=O)C2CC2)CC1 [Olaparib] (first compound max 0.001 µM, 7x7, partner max 10 µM) | -0.0172 | -0.0342 | -0.0009 | 0.0701 | 0.0055 | -0.0387 | -0.0137 | -0.0358 | -0.0372 | -0.047 | -0.0898 | -0.0368 | -0.0371 | -0.0099 | -0.0297 | -0.0137 | -0.0295 | -0.049 | -0.0299 | -0.0198
CCc1c2c(nc3ccc(O)cc13)-c1cc3c(c(=O)n1C2)COC(=O)[C@]3(O)CC [SN-38] + CN(C)CCCOc1ccc(-c2ccc3ncc4c(c3c2)n(C2CCOCC2)c(=O)n4C)cn1 [AZD0156] (first compound max 0.3 µM, 7x7, partner max 1 µM) | 0.0477 | -0.0143 | -0.0007 | 0.0187 | 0.0603 | -0.079 | 0.0959 | 0.0639 | 0.121 | 0.0104 | -0.0047 | -0.0551 | -0.0198 | -0.0093 | 0.0609 | 0.0296 | 0.0355 | 0.148 | 0.042 | -0.0295
C[C@@H](c1ccc2nccn2c1)n1nnc2ncc(-c3cnn(C)c3)nc21 [Savolitinib] + CC1(C)CCC(CN2CCN(c3ccc(C(=O)NS(=O)(=O)c4ccc(NCC5CCOCC5)c([N+](=O)[O-])c4)c(Oc4cnc5[nH]ccc5c4)c3)CC2)=C(c2ccc(Cl)cc2)C1 [Venetoclax] (first compound max 1 µM, 7x7, partner max 1 µM) | -0.0611 | -0.0246 | -0.107 | -0.012 | -0.0357 | 0.0176 | -0.0137 | -0.0339 | 0.0246 | 0.0324 | -0.0569 | -0.0457 | -0.0411 | -0.0192 | -0.095 | -0.0623 | -0.0349 | -0.105 | -0.0614 | -0.0603

Reference: the supplement of paper PMC11061612
